Source: US20040018500A1, “Methods and systems for analyzing complex biological systems” (priority 2001, published 2004)

Legend:
[1] = test system: Arabidopsis thaliana plants; experiment: SOA1 phenotypic analysis of herbicide-treated Arabidopsis plants; type: in vivo; conditions: for characteristic symptoms (phenotypic analysis): herbicide-treated Arabidopsis; for leafCurling (Dev.) / leafTwisting (Dev.) / leafWidth (Dev.) / matureLeafAnthocyanins (Dev.) / matureLeafChlorosis (Dev.) / matureLeafNecrosis (Dev.) / newLeafAnthocyanins (Dev.) / newLeafChlorosis (Dev.) / newLeafNecrosis (Dev.) / pointedLeaves (Dev.): numeric value standardized to mock treated tissues; for tMic (Dev.): score for time to full symptoms at minimum inhibitory concentration; for Symptom Class: three-week-old Arabidopsis treated with herbicide, phenotypes shown in FIG. 12
Magnaporthe grisea = type: cell-based
Arabidopsis thaliana [2] = experiment: MOA1 gene expression profiling (22,000 gene array) of sprayed Arabidopsis; conditions: regulated genes (1 hr) found in list of genes essential for plant growth and development
Arabidopsis thaliana [3] = experiment: MOA1 biochemical (metabolite) profiling by LC-MS and GC-MS of sprayed Arabidopsis; conditions: for Number of Metabolites Changed: (unknown #) / Number of Metabolites Changed: Total #: 1 hr

Compound | characteristic symptoms (phenotypic analysis) [1] | leafCurling (Dev.) [1] | leafTwisting (Dev.) [1] | leafWidth (Dev.) [1] | matureLeafAnthocyanins (Dev.) [1] | matureLeafChlorosis (Dev.) [1] | matureLeafNecrosis (Dev.) [1] | newLeafAnthocyanins (Dev.) [1] | newLeafChlorosis (Dev.) [1] | newLeafNecrosis (Dev.) [1] | pointedLeaves (Dev.) [1] | tMic (Dev.) [1] | Symptom Class [1] | also measured
CP(=O)(O)CCC(N)C(=O)O (centres unmarked) [Glufosinate] | Chlorosis and leaf curling | 2 | 1 | −2 | 0 | 3 | 0 | 0 | 3 | 0 | 1 | 1 | 3 | nitrogen sources M. grisea can utilize in the presence of the compound (Magnaporthe grisea): only able to utilize glutamine and glutamate as nitrogen sources; No. of Lethal Genes Altered (Arabidopsis thaliana [2]): 10; Number of Metabolites Changed: (unknown #) (Arabidopsis thaliana [3]; p < 0.05): 4(4); Number of Metabolites Changed: Total # (Arabidopsis thaliana [3]; p < 0.05): 4(4); Number of Metabolites Changed: (unknown #) (Arabidopsis thaliana [3]; p < 0.11): 9(9); Number of Metabolites Changed: Total # (Arabidopsis thaliana [3]; p < 0.11): 9(9); commonly regulated (putative stress-related) metabolites (Arabidopsis thaliana [3]; MOA1, 20 minutes and 1 hour after spraying): Only a few, if any, stress-related metabolites were observed
O=C(O)CNCP(=O)(O)O [Glyphosate] | anthocyanin accumulation in the older leaves accompanied by chlorosis of the newly emerging leaves | 0 | 0 | 0 | 3 | 1 | 3 | 1 | 2 | 0 | 1 | 2 | 4 | Tier 4: growth of M. grisea with ammonium or glutamine as nitrogen source (Magnaporthe grisea): Little growth defect; growth of M. grisea with nitrate, nitrite, or glutamate as the sole nitrogen source (Magnaporthe grisea): inhibited growth; comparison of growth results for Tiers 3 and 4 (Unknown 4 versus glyphosate) (Magnaporthe grisea; 250 μg/ml): nearly identical as compared to Unknown 4; growth inhibition of M. grisea and its remediation (Magnaporthe grisea; glyphosate at 1.0 mg/ml): remediated by inclusion of aromatic amino acids; tyrosine level (Arabidopsis thaliana [3]; MOA1 metabolite data, one hour, relative to the control): decreased relative to the control after one hour
